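At the GI50, growth is halved. At the TGI there is no net growth.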
Tests used:
Assay in all cases: NCI-60 cell line screen, 384-well format
OVCAR-3 ovarian = test system: OVCAR-3 ovarian
SK-MEL-28 melanoma = test system: SK-MEL-28 melanoma
HL-60(TB) leukemia = test system: HL-60(TB) leukemia
SK-MEL-2 melanoma = test system: SK-MEL-2 melanoma
NCI-H226 lung = test system: NCI-H226 lung
MDA-MB-468 breast = test system: MDA-MB-468 breast
HOP-62 NSCLC = test system: HOP-62 NSCLC
SK-MEL-5 melanoma = test system: SK-MEL-5 melanoma
BT-549 breast = test system: BT-549 breast
HCC-2998 colon = test system: HCC-2998 colon
HT29 colon = test system: HT29 colon
DU-145 prostate = test system: DU-145 prostate
LOX IMVI melanoma = test system: LOX IMVI melanoma
OVCAR-8 ovarian = test system: OVCAR-8 ovarian
KM12 colon = test system: KM12 colon
SK-OV-3 ovarian = test system: SK-OV-3 ovarian
MDA-MB-435 melanoma = test system: MDA-MB-435 melanoma
HCT-116 colon = test system: HCT-116 colon
EKVX NSCLC = test system: EKVX NSCLC
UACC-62 melanoma = test system: UACC-62 melanoma
CCRF-CEM leukemia = test system: CCRF-CEM leukemia
MCF7 breast = test system: MCF7 breast
OVCAR-5 ovarian = test system: OVCAR-5 ovarian
IGROV1 ovarian = test system: IGROV1 ovarian
UO-31 renal = test system: UO-31 renal
SF-539 CNS = test system: SF-539 CNS
MALME-3M melanoma = test system: MALME-3M melanoma
NCI-H322M lung = test system: NCI-H322M lung
COLO 205 colon = test system: COLO 205 colon
HOP-92 NSCLC = test system: HOP-92 NSCLC
TK-10 renal = test system: TK-10 renal
786-0 renal = test system: 786-0 renal
HCT-15 colon = test system: HCT-15 colon
MOLT-4 leukemia = test system: MOLT-4 leukemia
K-562 leukemia = test system: K-562 leukemia
NCI-H460 NSCLC = test system: NCI-H460 NSCLC
UACC-257 melanoma = test system: UACC-257 melanoma
RPMI-8226 leukemia = test system: RPMI-8226 leukemia
CAKI-1 renal = test system: CAKI-1 renal
SN12C renal = test system: SN12C renal
SW-620 colon = test system: SW-620 colon
NCI/ADR-RES ovarian = test system: NCI/ADR-RES ovarian
SR leukemia = test system: SR leukemia
T-47D breast = test system: T-47D breast
MDA-MB-231 breast = test system: MDA-MB-231 breast
NCI-H522 lung = test system: NCI-H522 lung
OVCAR-4 ovarian = test system: OVCAR-4 ovarian

Compound: O=C(/C=C\n1cnc(-c2cc(C(F)(F)F)cc(C(F)(F)F)c2)n1)NNc1cnccn1
- GI50 (OVCAR-3 ovarian): 57.6 nM
- TGI (OVCAR-3 ovarian): 463 nM
- GI50 (SK-MEL-28 melanoma): 192 nM
- TGI (SK-MEL-28 melanoma): 1380 nM
- GI50 (HL-60(TB) leukemia): 41 nM
- TGI (HL-60(TB) leukemia): 185 nM
- GI50 (SK-MEL-2 melanoma): 119 nM
- TGI (SK-MEL-2 melanoma): 282 nM
- GI50 (NCI-H226 lung): 33.8 nM
- TGI (NCI-H226 lung): 858 nM
- GI50 (MDA-MB-468 breast): 90.3 nM
- TGI (MDA-MB-468 breast): 249 nM
- GI50 (HOP-62 NSCLC): 166 nM
- TGI (HOP-62 NSCLC): 1170 nM
- GI50 (SK-MEL-5 melanoma): 143 nM
- TGI (SK-MEL-5 melanoma): 675 nM
- GI50 (BT-549 breast): 19.9 nM
- TGI (BT-549 breast): 62.1 nM
- GI50 (HCC-2998 colon): 46.3 nM
- TGI (HCC-2998 colon): 530 nM
- GI50 (HT29 colon): 213 nM
- TGI (HT29 colon): 6540 nM
- GI50 (DU-145 prostate): 274 nM
- TGI (DU-145 prostate): 1220 nM
- GI50 (LOX IMVI melanoma): 144 nM
- TGI (LOX IMVI melanoma): 555 nM
- GI50 (OVCAR-8 ovarian): 70.6 nM
- TGI (OVCAR-8 ovarian): 936 nM
- GI50 (KM12 colon): 442 nM
- TGI (KM12 colon): 3860 nM
- GI50 (SK-OV-3 ovarian): 919 nM
- TGI (SK-OV-3 ovarian): 13600 nM
- GI50 (MDA-MB-435 melanoma): 177 nM
- TGI (MDA-MB-435 melanoma): 721 nM
- GI50 (HCT-116 colon): 60.8 nM
- TGI (HCT-116 colon): 504 nM
- GI50 (EKVX NSCLC): 1340 nM
- TGI (EKVX NSCLC): 13100 nM
- GI50 (UACC-62 melanoma): 106 nM
- TGI (UACC-62 melanoma): 418 nM
- GI50 (CCRF-CEM leukemia): 91 nM
- TGI (CCRF-CEM leukemia): 390 nM
- GI50 (MCF7 breast): 58 nM
- TGI (MCF7 breast): 2150 nM
- GI50 (OVCAR-5 ovarian): 342 nM
- TGI (OVCAR-5 ovarian): 9930 nM
- GI50 (IGROV1 ovarian): 424 nM
- TGI (IGROV1 ovarian): 7510 nM
- GI50 (UO-31 renal): 466 nM
- TGI (UO-31 renal): 4410 nM
- GI50 (SF-539 CNS): 26.2 nM
- TGI (SF-539 CNS): 86 nM
- GI50 (MALME-3M melanoma): 142 nM
- TGI (MALME-3M melanoma): 1170 nM
- GI50 (NCI-H322M lung): 213 nM
- TGI (NCI-H322M lung): 5260 nM
- GI50 (COLO 205 colon): 84.2 nM
- TGI (COLO 205 colon): 4600 nM
- GI50 (HOP-92 NSCLC): 194 nM
- TGI (HOP-92 NSCLC): 4360 nM
- GI50 (TK-10 renal): 126 nM
- TGI (TK-10 renal): 13200 nM
- GI50 ([…]-0 renal): 59.8 nM
- TGI (786-0 renal): 3310 nM
- GI50 (HCT-15 colon): 152 nM
- TGI (HCT-15 colon): 1310 nM
- GI50 (MOLT-4 leukemia): 16.3 nM
- TGI (MOLT-4 leukemia): 31.1 nM
- GI50 (K-562 leukemia): 41.7 nM
- TGI (K-562 leukemia): 289 nM
- GI50 (NCI-H460 NSCLC): 48.3 nM
- TGI (NCI-H460 NSCLC): 337 nM
- GI50 (UACC-257 melanoma): 977 nM
- TGI (UACC-257 melanoma): 8460 nM
- GI50 (RPMI-8226 leukemia): 19.6 nM
- TGI (RPMI-8226 leukemia): 64.9 nM
- GI50 (CAKI-1 renal): 99.7 nM
- TGI (CAKI-1 renal): 13100 nM
- GI50 (SN12C renal): 655 nM
- TGI (SN12C renal): 5870 nM
- GI50 (SW-620 colon): 81.8 nM
- TGI (SW-620 colon): 7100 nM
- GI50 (NCI/ADR-RES ovarian): 89.1 nM
- TGI (NCI/ADR-RES ovarian): 1570 nM
- GI50 (SR leukemia): 13.7 nM
- TGI (SR leukemia): 29.8 nM
- GI50 (T-47D breast): 165 nM
- TGI (T-47D breast): 4110 nM
- GI50 (MDA-MB-231 breast): 51.7 nM
- TGI (MDA-MB-231 breast): 244 nM
- GI50 (NCI-H522 lung): 61.1 nM
- TGI (NCI-H522 lung): 304 nM
- GI50 (OVCAR-4 ovarian): 316 nM
- TGI (OVCAR-4 ovarian): 1040 nM

From PubChem BioAssay (NCI)
